# What was measured:
# [1] = system: carotid artery rings (endothelial cells); experiment: Superoxide measurement (L012 luminescence) in carotid artery rings treated in vitro; format: cell-based, swine
# Procedure: For superoxide measurements, carotid arteries (vessel segments 104) from both sides were quickly removed and placed into a heated (37° C.) chamber filled with HEPES buffered PSS containing (in mM): D-glucose, 5.5; KCl, 4.7; NaCl, 142; HEPES sodium salt, 2.7; MgSO4, 1.17; CaCl2, 2.79; at pH 7.4. For NADPH oxidase activity assays or protein expression measurements by western blot, the left and right carotid arteries were removed and saved in a −80° C. freezer until analysis.
# The harvested vessels (vessel segments 104) were cut into small rings at approximately 3 mm in length in 37° C. HEPES PSS buffer. The rings were first transferred into […] with HEPES-PSS and incubated at 37° C. for 5 minutes. Various compounds [cytochalason D, latrunculin B, jasplakinolide, and phorbol 2-myrisate 13-acetate (PMA)] were then added into each well for treatment. The L012 (100 μM) was added last and the luminescence was recorded for 60 minutes at 1 minute intervals using a plate reader from Perkin Elmer (En vision Xcite Multilabel Reader, Perkin Elmer, Shelton, Conn.) at ultra-luminecent mode. The total reaction volume was 200 μl. After each recording, the sample rings were air dried and weighed. Each condition was tested in triplicate. To remove the endothelial cells, the vessel ring was gently rubbed against the tip of a pair of forceps.
# Basal superoxide production was detected in the carotid artery (vessel segment 104) samples obtained from control animals with forward blood flow as shown in FIG. 2A. Rings were incubated with or without treatments of cytochalasin D (cyt D), latrunculin (Latru) or jasplakinolide (Jasp) and the superoxide production were recorded using plate reader at ultrasensitive mode for luminescence to generate the results shown in FIG. 2A. The luminescence recorded from rings without treatment was considered at base level and taken as 100%. The luminescence recorded under other conditions was expressed as percentage of base level. The superoxide production induced by PMA was used as positive control as identified in FIG. 2B. Each condition was tested in triplicate from each animal. The significance of increased superoxide production was test using ANOVA (p=0.004 for cytochalasin D, n=10 and p=0.044 for Latrucillin, n=3), and the data are mean±1SD.
# [2] = system: carotid artery with reverse flow; experiment: Superoxide measurement (L012 luminescence) in carotid arteries after in vivo reverse flow with drug treatment; parameters: species or system swine
# Text: To create a full reverse flow, and as part of an exemplary system 100 of the present disclosure, two tubes 102, such as two pieces of silicone tubing, were inserted into the two respective ends of the isolated vessel segment 104 as shown in FIGS. 1A and 1B. In at least one embodiment, tubes 102 are configured to fit within a portion of isolated vessel segment 104, and in at least another embodiment, tubes 102 are configured so surround the ends of vessel segment and are held in place with a connector (not shown). […]
# The harvested vessels (vessel segments 104) were cut into small rings at approximately 3 mm in length in 37° C. […] The L012 (100 μM) was added last and the luminescence was recorded for 60 minutes at 1 minute intervals using a plate reader from Perkin Elmer (En vision Xcite Multilabel Reader, Perkin Elmer, Shelton, Conn.) at ultra-luminecent mode. […]
# Samples were obtained from carotid arteries with forward (solid bar) or reverse (empty bar) flow (FF or RF, respectively) or reverse flow plus jasplakinolide (Jasp) treatment (lined bar). The basal level of superoxide measured under forward flow condition was taken as 100%, and all other measurements were expressed as percentage to the basal level. Each measurement was performed in triplicate and data were expressed as mean±1SD. […]
# [3] = system: NADPH oxidase; experiment: NADPH oxidase activity assay in subcellular membrane preparations of vessels; format: in vivo, swine
# Procedure: (§1) In some experiments (n=3), the carotid arteries were treated with jasplakinolide to stablize the actin. […] The right side vessel 114 was filled with saline and served as control. The reverse or forward flows were then ensured for 2 hrs (for superoxide measurement) or 4 hrs (for NADPH oxidase measurment by western blot) after clamps 116, 118 were released. A low concentration of jasplakinolide was used, which was sufficient to stabilize actin and to avoid possible non-specific effects at high concentration. […]
# Stored samples were placed in ice cold lysis buffer containing 20 mM KH2PO4, 1 mM EGTA and protease inhibitor cocktail (Sigma-Aldrich, St. Louis, Mo.) and homogenized with an electric homogenizer (Power Gen 35, Fisher Scientific) for 20 seconds each. […] The enzyme activity was determined in 200 μl assay buffer at pH7.4 containing the following (in mM): HEPES, 25; NaCl, 120; KCl, 5.9; MgSO4, 1.2; CaCl2, 1.75; glucose, 11; β-NADPH, 0.1; and L012, 0.1. The reaction started by adding 10 μL of homogenate, and the luminescence was measured every 15 seconds for 5 minutes by Perkin Elmer plate reader at ultra-sensitive mode. The protein concentration was determined by BCA kit (Bio-Rad) and the results of enzyme activity were standardized to protein level of each sample. […]
# [4] = system: gp91phox and p47phox; experiment: Western blot for NADPH oxidase expression; format: in vivo, swine; conditions: jasplakinolide, four hours of treatment
# Procedure: as §1
# The artery segments were homogenized in the lysis buffer containing 50 mM glycerophosphate, 100 μM sodium orthovanadate, 2 mM magnesium chloride, 1 mM EGTA, 0.5% Triton X-100, 1 mM DL-dithiothreitol, 20 μM pepstatin, 20 μM leupeptin, 0.1 U/ml aprotinin, and 1 mM phenylmethylsulfonyl fluoride and then incubated on ice for 1 hour. […] The total protein was measured by a BCA kit (Bio-Rad). […]
# The NADPH oxidase activity was examined using an enzyme assay in subcellular membrane prepared from vessels with different flow conditions. […] The data are expressed as ratio of enzyme activity measured in vessel from reverse flow (RF) or reverse flow with jasplakinolide (RF-Jasp) treatment vs forward flow (FF). […] The data are expressed as ratio of protein band density of reversed flow sample versus that from forward flow sample.
# [5] = system: carotid artery wall; experiment: Superoxide in carotid artery wall by dihydroethidine fluorescence (laser confocal microscopy) after flow reversal; format: in vivo; conditions: apocynin 1 mM in drinking water concurrently with carotid flow reversal; vs flow reversal without apocynin
# Procedure: The carotid arteries of animals were removed and examined by laser confocal microscopy excitation (514 nm; emission, 605 nm; Objective, 40x. C.3.a. Visualization of NO and O2-Using Fluorescence) following perfusion under conditions of: Control (C), Flow Reversal (FR), and Apocynin+Flow Reversal (AC). The apocynin was administered in drinking water (1 mM) to an animal concurrently with carotid flow reversal. Dihydroethidine (DHE), a fluorescent dye, was used to indicate superoxide in arterial wall.
# [6] = system: porcine femoral artery preparation; experiment: NO metabolite (nitrite) production in perfused porcine femoral artery preparation, forward and reverse flow; conditions: tempol added to perfusate
# Procedure: A purfusate was passed through an in vitro porcine femoral artery preparation in the forward and reverse flow directions and the levels of NO metabolite (nitrite) were measured at various flowrates in the forward and reverse directions. Thereafter, tempol was added to the perfusate and the levels of NO metabolite (nitrite) were again measured at various flowrates in the forward and reverse directions. […] The asterisk denotes statistical significance by ANOVA analysis between groups at the respective flows (P<0.05).
# [7] = system: actin in carotid artery endothelial cells; experiment: Actin immunostain (Alexa Fluor488-phalloidin) of carotid artery rings, in vitro actin depolymerization; format: cell-based, swine; conditions: 10 μM cytochalasin D, 30 minutes, 37° C.
# Procedure: For actin staining, vessels under different conditions were cut into 4 mm rings and immediately fixed for 2 hours in 4% methanol-free formaldehyde-PBS solution (Thermo Scientific, Rockford, Ill.). For in vitro actin depolymerization immunochemistry, 3 to 4 mm carotid artery ring from control animal were incubated with 10 μM cytochalasin D for 30 minutes. Samples were fixed for 2 hours and then processed for actin staining.
# The fixed samples were permeablized by 0.1% tritonX-PBS solution. After non-specific sites were blocked by 1% BSA in PBS, actin was labled by incubating samples with Alexa Fluor488-phalloidin (Invitrogen, Carlsbad, Calif.) for 30 minutes at room temperature. After labeling, each sample was cut into a 3×3 mm piece and mounted on glass slide and covered with a glass cover slip in the presence of 70% glyceral-PBS and sealed with glue. The samples were observed under a Zeiss confocal microscope (Zeiss 510 meta) and images were captured under 100× objective oil lens with excitation at 488 nm and emission at BP 500-530 nm.
# All samples were viewed under confocal microscopy (Zeiss 510 meta) with 100× objective with excitation at 488 nm and Emission at BP 500-530 nm.
# [8] = system: p47phox; experiment: p47phox phosphorylation (phosphoserine immunoprecipitation and western blot), in vitro; format: cell-based, swine; conditions: cytochalasin D treatment in vitro; p<0.05
# Procedure: For p47^phox phosphorylation measurements, the total protein with phosphoserine was first immunoprecipitated according to a known method. Briefly, samples were first incubated with rabbit polyclonal antibody to phosphoserine (Abcam, Cambridge, Mass.) for 2 hours at 4° C. Samples were then mixed with Protein G PLUS-Agarose (Santa Cruz Biotechnology, Santa Cruz, Calif.) and incubated overnight at 4° C. Samples were then centrifuged and washed three times with lysis buffer. The pellet was resuspended in loading buffer and denatured. The p47^phox was then measured by western blot.
# P47^phox phosphorylation was examined further to understand the molecular basis for increased superoxide production subsequent to actin depolymerization and flow reversal, as shown in FIGS. 7A-7D. The phosphorylated P47^phox was standardized by total P47^phox. The level of phosphorylated P47^phox at basal level in vitro (FIG. 7A) or under forward flow (FF) condition in vivo (FIG. 7C) were taken as 100% and the level of phosphorylated P47^phox after cytochalasin D treatment or under reversed flow (RF) condition were expressed as percent thereof. […] The data are mean and SD of at least three experiments from different animals (*p<0.05).
# [9] = system: actin in carotid artery endothelial cells; conditions: reported previously; cited from earlier work
smiles,measurement,setting,value
C/C1=C\[C@H](C)C[C@H](C)OC(=O)C[C@H](c2ccc(O)cc2)NC(=O)[C@@H](Cc2c(Br)[nH]c3ccccc23)N(C)C(=O)[C@H](C)NC(=O)[C@@H](C)C1 [jasplakinolide],superoxide level vs untreated samples,"[1]; 0.1 μM jasplakinolide, artery samples under normal forward flow",not changed
same,increase of superoxide production on reversed blood flow,"[2]; vessel prefilled with 0.1 μM jasplakinolide 10 minutes, reverse flow 2 hrs",prevented
same,NADPH oxidase activity in vessel with reversed flow vs untreated vessel,[3]; jasplakinolide treatment (0.1 μM prefill),decreased
same,expression of NADPH oxidase subunits gp91phox and p47phox,[4],not changed
"COc1cc(C(C)=O)ccc1O [apocynin, 4-hydroxy-3-methoxy-acetophenone]",amount of superoxide present in artery wall (DHE fluorescence),[5],reduced the amount of superoxide
same,reversed flow induced superoxide production,[2]; apocynin bolus 4 mg/kg i.v. then 3.5 μg/kg/min i.v.,abolished
same,NADPH oxidase enzyme activity,[3]; samples from animals treated with apocynin,reduced
"CC1(C)CC(O)CC(C)(C)N1[O] [tempol, 4-hydroxy-2,2,6,6-tetramethyl-4-piperidine-N-oxyl]",NO production (NO metabolite nitrite),[6]; forward flow,did not cause a statistically significant increase
same,NO production (NO metabolite nitrite),"[6]; reverse flow, P<0.05",did significantly increase
"C/C1=C/C(=O)O[C@@H]2C[C@@H](CC[C@H](C)/C=C\CC1)O[C@@](O)([C@@H]1CSC(=O)N1)C2 [latrunculin, latrunculin B]",increase of superoxide production vs untreated samples,"[1]; 1 μM latrunculin, artery samples under normal forward flow",~2 fold
C=C1[C@@H](C)[C@H]2[C@H](Cc3ccccc3)NC(=O)[C@]23[C@H](OC(C)=O)/C=C/[C@@](C)(O)C(=O)[C@@H](C)C/C=C/[C@H]3[C@@H]1O [cytochalasin D],increase of superoxide production vs untreated samples,"[1]; 10 μM cytochalasin D, artery samples under normal forward flow",about 5 fold
same,superoxide production in vessel with reverse flow,[1]; cytochalasin D added to samples from reverse flow vessel,further increase
same,actin filament pattern,[7],significant disruption of actin filaments
same,p47phox phosphorylation vs untreated sample,[8],increased
same,cytochalasin D concentration at which all long actin filament bundles were disrupted and replaced by focal aggregates of F-actin,[9],≥ 2 µM
same,cytochalasin D concentration at which changes of actin cytoskeleton were visible,[9],20 nM

# Reference: patent US20130085109A1, “METHODS OF CARDIOVASCULAR PATIENT TREATMENT USING SUBSTANCES SUFFICIENT TO REDUCE ACTIN DEPOLYMERIZATION” (priority 2008, published 2013)
